Measured values published in PubChem BioAssay AID1919010 (Molecular Pharmacology Branch, DTP, NCI, 2023).
Each block holds one compound with its values, some of them ahead of it.

Test system: Hs578T complex spheroid growth, percent test/control
Experiment: Anticancer human tumor Hs578T cell line growth inhibition [AhR];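 further: luminescent viability signal as a proxy for spheroid growth; spheroids exposed to agents for one week after three days of growth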
Details: for IC50: curve of first compound; for viability, T/C: stronger effect = lower value
From the text: Multicellular complex tumor spheroid response to aryl hydrocarbon receptor antagonists in combination with a variety of drugs and investigational agents in selected tumor cell lines
The current study was undertaken to assess response to aryl hydrocarbon receptor antagonists in combination with standard-of-care drugs and investigational agents in solid tumor complex spheroid models. Complex spheroids include a stromal component modeled by human endothelial cells (HUVEC) and fibroblasts modeled by human mesenchymal stem cells (MSCs). The concentration ranges selected for each drug and investigational agent were based upon clinically achievable concentrations if the clinical Cmax of the agent was known.
Compounds. The drugs and investigational agents: BAY 2416964 (NSC825713), GNF351 (NSC835774), CH-223191 (NSC835775), CPI-455 (NSC825282), aza-TdCyd (NSC777586), decitabine (NSC127716), belinostat (NSC758774), entinostat (NSC756642), pevonedistat (NSC761192), tazemetostat (NSC777109), talazoparib (NSC765396), olaparib (NSC753686), selinexor (NSC780203), nedisertib (M3814, NSC802822), bortezomib (NSC756655), venetoclax (NSC766270), doxorubicin (NSC123127), elimusertib (BAY189344, NSC800525), ceralasertib (AZD6738, NSC777638), TAK-243 (NSC785004), alisertib (NSC759677), etoposide (NSC141540), topotecan (NSC609699), eribulin (NSC707389), gemcitabine (NSC613327), carboplatin (NSC241240), cisplatin (NSC119875), and SN-38 (NSC673596) were obtained from the National Cancer Institute (NCI) Developmental Therapeutics Program Chemical Repository (32). The FDA-approved anticancer drug set is available from the Developmental Therapeutics Program at https://dtp.cancer.gov/organization/dscb/obtaining/available plates.htm. […] The stock solutions were prepared in dimethyl sulfoxide (DMSO, Sigma-Aldrich, St. Louis, MO, cat. D2650), except for the platinum compounds which were prepared in saline (Quality Biological, Gaithersburg, MD, cat. 114-055-101), at 800-fold the tested concentration and stored at -70 degrees C prior to their use. All drugs and investigational agents were tested over a range starting from a high concentration at or near the clinical Cmax and decreasing in half-log increments. If the clinical Cmax for an agent had not been determined, the highest concentration tested was 10 microM (Table 1).
Cell Culture. All cells were maintained in an incubator at 37 degrees C and 5% CO2 with 95% humidity. The PDC lines were cultured according to standard operating procedures established by the NCI PDMR (https://pdmr.cancer.gov). Briefly, all PDCs were thawed and cultured in Matrigel-coated flasks prepared with a working solution of 1X Ham's F-12 nutrient mix, without supplementation (Invitrogen, Waltham, MA, cat. 11765054), 100 U/mL penicillin-streptomycin (Invitrogen, cat. 15140122), and 2.5% Matrigel (Corning Inc., Corning, NY, cat. 354248) for the first three passages. All PDCs were cultured in complete DMEM/F-12 media containing advanced DMEM/F-12 (Invitrogen, cat. 12634028), 4.9% defined fetal bovine serum, heat inactivated (HyClone Laboratories Inc., Logan, UT, cat. SH30070.03HI), 389 ng/mL hydrocortisone (Sigma-Aldrich, cat. H4001), 9.7 ng/mL human EGF recombinant protein (Invitrogen, cat. PHG0313), 23.4 microg/mL adenine (Sigma-Aldrich, cat. A2786), 97.3 U/mL penicillin-streptomycin (Invitrogen, cat. 15140122), 1.9 mM L-glutamine (Invitrogen, cat. 25030081), and 9.7 microM Y-27632 dihydrochloride (Tocris Bioscience, Bristol, United Kingdom, cat. 1254). The PDCs were cultured in complete DMEM/F12 media without 10 microM Y-27632 dihydrochloride for at least two passages prior to the screen. The established cell lines NCI-H1341 and […] were cultured in DMEM/F-12, HEPES (Invitrogen, cat. 11330032), 5% defined fetal bovine serum (HyClone Laboratories Inc., cat. SH30070.03), ITS premix universal culture supplement [insulin (5 microg/mL), transferrin (5 microg/mL), and selenious acid (5 ng/mL)] […]

[1] = second compound 0.1 µM, first compound 0.00316 µM
[2] = second compound 0.1 µM, first compound 0.01 µM
[3] = second compound 0.1 µM, first compound 0.0316 µM
[4] = second compound 0.1 µM, first compound 0.1 µM
[5] = second compound 0.316 µM, first compound 0.00316 µM
[6] = second compound 0.316 µM, first compound 0.01 µM
[7] = second compound 0.316 µM, first compound 0.0316 µM
[8] = second compound 0.316 µM, first compound 0.1 µM
[9] = second compound 1 µM, first compound 0.00316 µM
[10] = second compound 1 µM, first compound 0.01 µM
[11] = second compound 1 µM, first compound 0.0316 µM
[12] = second compound 1 µM, first compound 0.1 µM
[13] = second compound 3.16 µM, first compound 0.00316 µM
[14] = second compound 3.16 µM, first compound 0.01 µM
[15] = second compound 3.16 µM, first compound 0.0316 µM
[16] = second compound 3.16 µM, first compound 0.1 µM
[17] = second compound 10 µM, first compound 0.00316 µM
[18] = second compound 10 µM, first compound 0.01 µM
[19] = second compound 10 µM, first compound 0.0316 µM
[20] = second compound 10 µM, first compound 0.1 µM
[21] = second compound 0.1 µM, first compound 0.316 µM
[22] = second compound 0.1 µM, first compound 1 µM
[23] = second compound 0.1 µM, first compound 3.16 µM
[24] = second compound 0.1 µM, first compound 10 µM
[25] = second compound 0.316 µM, first compound 0.316 µM
[26] = second compound 0.316 µM, first compound 1 µM
[27] = second compound 0.316 µM, first compound 3.16 µM
[28] = second compound 0.316 µM, first compound 10 µM
[29] = second compound 1 µM, first compound 0.316 µM
[30] = second compound 1 µM, first compound 1 µM
[31] = second compound 1 µM, first compound 3.16 µM
[32] = second compound 1 µM, first compound 10 µM
[33] = second compound 3.16 µM, first compound 0.316 µM
[34] = second compound 3.16 µM, first compound 1 µM
[35] = second compound 3.16 µM, first compound 3.16 µM
[36] = second compound 3.16 µM, first compound 10 µM
[37] = second compound 10 µM, first compound 0.316 µM
[38] = second compound 10 µM, first compound 1 µM
[39] = second compound 10 µM, first compound 3.16 µM
[40] = second compound 10 µM, first compound 10 µM

- IC50 (second compound 0.1 µM): > 100 nM
- IC50 (second compound 0.316 µM): > 100 nM
- IC50 (second compound 1 µM): > 100 nM
- IC50 (second compound 3.16 µM): > 100 nM
- IC50 (second compound 10 µM): > 100 nM
Structure (SMILES): CC[C@@]1(O)C(=O)OCc2c1cc1n(c2=O)Cc2cc3c(CN(C)C)c(O)ccc3nc2-1 + CC(CO)NC(=O)c1cc(-c2ccc(Cl)cc2)nn(-c2cnn(C)c2)c1=O
- viability, T/C (second compound 0.1 µM, first compound 0.000316 µM): 120%
- viability, T/C (second compound 0.1 µM, first compound 0.001 µM): 115%
- viability, T/C [1]: 114%
- viability, T/C [2]: 103%
- viability, T/C [3]: 83.9%
- viability, T/C [4]: 82%
- viability, T/C (second compound 0.316 µM, first compound 0.000316 µM): 112%
- viability, T/C (second compound 0.316 µM, first compound 0.001 µM): 110%
- viability, T/C [5]: 115%
- viability, T/C [6]: 98.9%
- viability, T/C [7]: 89.6%
- viability, T/C [8]: 84%
- viability, T/C (second compound 1 µM, first compound 0.000316 µM): 126%
- viability, T/C (second compound 1 µM, first compound 0.001 µM): 123%
- viability, T/C [9]: 120%
- viability, T/C [10]: 109%
- viability, T/C [11]: 91.4%
- viability, T/C [12]: 103%
- viability, T/C (second compound 3.16 µM, first compound 0.000316 µM): 115%
- viability, T/C (second compound 3.16 µM, first compound 0.001 µM): 118%
- viability, T/C [13]: 132%
- viability, T/C [14]: 93.8%
- viability, T/C [15]: 82.9%
- viability, T/C [16]: 86.8%
- viability, T/C (second compound 10 µM, first compound 0.000316 µM): 110%
- viability, T/C (second compound 10 µM, first compound 0.001 µM): 117%
- viability, T/C [17]: 110%
- viability, T/C [18]: 103%
- viability, T/C [19]: 84.5%
- viability, T/C [20]: 83.7%

- IC50 (second compound 0.1 µM): > 10000 nM
- IC50 (second compound 0.316 µM): > 10000 nM
- IC50 (second compound 1 µM): > 10000 nM
- IC50 (second compound 3.16 µM): > 10000 nM
- IC50 (second compound 10 µM): > 10000 nM
Structure (SMILES): COc1cc(C2c3cc4c(cc3C(OC3OC5COC(C)OC5C(O)C3O)C3COC(=O)C23)OCO4)cc(OC)c1O (stereo not given) + CC(CO)NC(=O)c1cc(-c2ccc(Cl)cc2)nn(-c2cnn(C)c2)c1=O
- viability, T/C [3]: 103%
- viability, T/C [4]: 109%
- viability, T/C [21]: 87.9%
- viability, T/C [22]: 79.2%
- viability, T/C [23]: 81%
- viability, T/C [24]: 64.9%
- viability, T/C [7]: 111%
- viability, T/C [8]: 99.2%
- viability, T/C [25]: 105%
- viability, T/C [26]: 83.2%
- viability, T/C [27]: 73.8%
- viability, T/C [28]: 57.1%
- viability, T/C [11]: 108%
- viability, T/C [12]: 123%
- viability, T/C [29]: 88.7%
- viability, T/C [30]: 80.1%
- viability, T/C [31]: 89.1%
- viability, T/C [32]: 60.5%
- viability, T/C [15]: 116%
- viability, T/C [16]: 102%
- viability, T/C [33]: 99.9%
- viability, T/C [34]: 86.2%
- viability, T/C [35]: 79.2%
- viability, T/C [36]: 60.7%
- viability, T/C [19]: 83.7%
- viability, T/C [20]: 88.3%
- viability, T/C [37]: 89.1%
- viability, T/C [38]: 76.6%
- viability, T/C [39]: 83.4%
- viability, T/C [40]: 58.9%

- IC50 (second compound 0.1 µM): 469 nM
- IC50 (second compound 0.316 µM): 502 nM
- IC50 (second compound 1 µM): 497 nM
- IC50 (second compound 3.16 µM): 398 nM
- IC50 (second compound 10 µM): 374 nM
Structure (SMILES): COc1cccc2c1C(=O)c1c(O)c3c(c(O)c1C2=O)CC(O)(C(=O)CO)CC3OC1CC(N)C(O)C(C)O1 (stereo not given) + CC(CO)NC(=O)c1cc(-c2ccc(Cl)cc2)nn(-c2cnn(C)c2)c1=O
- viability, T/C [3]: 96.3%
- viability, T/C [4]: 86.2%
- viability, T/C [21]: 64.6%
- viability, T/C [22]: 23.9%
- viability, T/C [23]: 3.62%
- viability, T/C [24]: 3.54%
- viability, T/C [7]: 78.7%
- viability, T/C [8]: 84.3%
- viability, T/C [25]: 66.8%
- viability, T/C [26]: 24.1%
- viability, T/C [27]: 2.56%
- viability, T/C [28]: 2.88%
- viability, T/C [11]: 92%
- viability, T/C [12]: 88.1%
- viability, T/C [29]: 67.8%
- viability, T/C [30]: 22.7%
- viability, T/C [31]: 3.26%
- viability, T/C [32]: 2.93%
- viability, T/C [15]: 88.6%
- viability, T/C [16]: 91%
- viability, T/C [33]: 58.1%
- viability, T/C [34]: 14.6%
- viability, T/C [35]: 2.55%
- viability, T/C [36]: 3.04%
- viability, T/C [19]: 78.3%
- viability, T/C [20]: 86.4%
- viability, T/C [37]: 57.8%
- viability, T/C [38]: 4.9%
- viability, T/C [39]: 2.84%
- viability, T/C [40]: 2.14%

- IC50 (second compound 0.1 µM): > 1000 nM
- IC50 (second compound 0.316 µM): > 1000 nM
- IC50 (second compound 1 µM): > 1000 nM
- IC50 (second compound 3.16 µM): > 1000 nM
- IC50 (second compound 10 µM): > 1000 nM
Structure (SMILES): Nc1ncn(C2CC(O)C(CO)O2)c(=O)n1 (stereo not given) + CC(CO)NC(=O)c1cc(-c2ccc(Cl)cc2)nn(-c2cnn(C)c2)c1=O
- viability, T/C [1]: 109%
- viability, T/C [2]: 107%
- viability, T/C [3]: 118%
- viability, T/C [4]: 107%
- viability, T/C [21]: 103%
- viability, T/C [22]: 95.5%
- viability, T/C [5]: 106%
- viability, T/C [6]: 114%
- viability, T/C [7]: 110%
- viability, T/C [8]: 114%
- viability, T/C [25]: 120%
- viability, T/C [26]: 109%
- viability, T/C [9]: 117%
- viability, T/C [10]: 108%
- viability, T/C [11]: 103%
- viability, T/C [12]: 102%
- viability, T/C [29]: 107%
- viability, T/C [30]: 96%
- viability, T/C [13]: 109%
- viability, T/C [14]: 109%
- viability, T/C [15]: 117%
- viability, T/C [16]: 114%
- viability, T/C [33]: 101%
- viability, T/C [34]: 97%
- viability, T/C [17]: 96.9%
- viability, T/C [18]: 100%
- viability, T/C [19]: 105%
- viability, T/C [20]: 99.6%
- viability, T/C [37]: 92.9%
- viability, T/C [38]: 100%
